# Data taken from paper PMC9490041, “Determinants of affinity, specificity, and phase separation in a supramodule from Post-synaptic density protein 95” (iScience, 2022).
# Read-outs that look alike come from different tables or passages of the source. Ends that are not written are not given here.
# Assays:
# PSG (PSD-95) [1] = experiment: FP saturation binding of FITC-15 AA CRIPT probe; conditions: read-out: Kd probe, 5 nM FITC-15 AA CRIPT, room temperature, PSG WT
# PSG G322A G335A (PSD-95) [2] = experiment: FP saturation binding of FITC-15 AA CRIPT probe; conditions: read-out: Kd probe, 5 nM FITC-15 AA CRIPT, room temperature
# PSG (PSD-95) [3] = experiment: FP displacement (competition) of FITC-15 AA CRIPT by library peptide, IC50 and Ki; conditions: for IC50: read-out: IC50 (µM), PSG
# PSG G335A (PSD-95) = experiment: as above; conditions: for IC50: read-out: IC50 (µM), PSG G335A; for Ki: read-out: Ki (µM), PSG G335A
# PSG F325A (PSD-95) = experiment: as above; conditions: for IC50: read-out: IC50 (µM), PSG F325A
# PSG G322A G335A (PSD-95) [4] = experiment: as above; conditions: for IC50: read-out: IC50 (µM), PSG G322A G335A
# PSG G322A (PSD-95) = experiment: as above; conditions: for IC50: read-out: IC50 (µM), PSG G322A; for Ki: read-out: Ki (µM), PSG G322A
# PDZ3 (PSD-95) = PDZ3 (PSD-95) (Homo sapiens, UniProt P78352); experiment: as above
# PDZ3 (PSD-95), sequence (P78352 313-393 limits assumed): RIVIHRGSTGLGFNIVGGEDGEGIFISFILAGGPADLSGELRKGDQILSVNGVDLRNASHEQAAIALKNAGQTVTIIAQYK
# PDZ1-2 (PSD-95) = experiment: Isothermal titration calorimetry; type: binding; conditions: ITC
# [5] = FP displacement of 5 nM FITC-15 AA CRIPT by non-labeled acetylated peptide, room temperature, Ki from IC50, technical triplicates, PSG
# [6] = FP displacement of FITC-15 AA CRIPT probe by PSD library peptide, protein PSG G335A
# [7] = FP displacement of FITC-15 AA CRIPT probe by PSD library peptide, protein PSG G322A
# [8] = FP displacement of FITC-15 AA CRIPT probe by acetylated PSD library peptide
# [9] = FP displacement of FITC-15 AA CRIPT probe by library peptide
compound,measurement,setting,value
CC(C)C[C@H](NC(=O)[C@@H](NC(=O)[C@H](CCCCN)NC(=O)[C@H](CCCCN)NC(=O)[C@H](Cc1ccc(O)cc1)NC(=S)Nc1ccc2c(c1)C(=O)OC21c2ccc(O)cc2Oc2cc(O)ccc21)C(C)C)C(=O)N[C@@H](CC(=O)O)C(=O)N[C@H](C(=O)N[C@@H](CCCCN)C(=O)N[C@@H](CC(N)=O)C(=O)N[C@@H](Cc1ccc(O)cc1)C(=O)N[C@@H](CCCCN)C(=O)N[C@@H](CCC(N)=O)C(=O)N[C@H](C(=O)N[C@@H](CO)C(=O)N[C@H](C(=O)O)C(C)C)[C@@H](C)O)[C@@H](C)O [FITC-15 AA CRIPT],Kd,PSG (PSD-95) [1],2.2 ± 0.22 µM
same,Kd,PSG G322A G335A (PSD-95) [2],0.16 ± 0.02 µM
CC[C@H](C)[C@H](NC(=O)[C@H](CCCCN)NC(=O)[C@@H]1CCCN1C(=O)[C@H](CC(C)C)NC(=O)[C@H](CCCNC(=N)N)NC(=O)[C@H](Cc1c[nH]cn1)NC(=O)[C@H](CO)NC(=O)CNC(=O)[C@H](CC(=O)O)NC(=O)[C@H](Cc1ccc(O)cc1)NC(C)=O)C(=O)N[C@@H](CCCCN)C(=O)N[C@@H](CCC(=O)O)C(=O)N[C@H](C(=O)N[C@H](C(=O)N[C@H](C(=O)O)C(C)C)[C@@H](C)O)[C@@H](C)O [FRPD4],Ki,PSG (PSD-95) [3]; [5],< 75 µM
same,IC50,"PSG (PSD-95) [3]; FP displacement of FITC-15 AA CRIPT probe by PSD library peptide, protein PSG (wild type)",6 µM
same,Ki,"PSG (PSD-95) [3]; read-out: Ki (µM), PSG, FP displacement of FITC-15 AA CRIPT probe by PSD library peptide, protein PSG (wild type)",2.43 µM
same,IC50,PSG G335A (PSD-95); [6],2.55 µM
same,Ki,PSG G335A (PSD-95); [6],0.753 µM
same,IC50,"PSG F325A (PSD-95); FP displacement of FITC-15 AA CRIPT probe by PSD library peptide, protein PSG F325A",18 µM
same,Ki,"PSG F325A (PSD-95); read-out: Ki (µM), PSG F325A, FP displacement of FITC-15 AA CRIPT probe by PSD library peptide, protein PSG F325A",9 µM
same,IC50,"PSG G322A G335A (PSD-95) [4]; FP displacement of FITC-15 AA CRIPT probe by PSD library peptide, protein PSG G322A G335A",2.47 µM
same,Ki,"PSG G322A G335A (PSD-95) [4]; read-out: Ki (µM), PSG G322A G335A, FP displacement of FITC-15 AA CRIPT probe by PSD library peptide, protein PSG G322A G335A",0.777 µM
same,IC50,PSG G322A (PSD-95); [7],3.4 µM
same,Ki,PSG G322A (PSD-95); [7],1.33 µM
CC(=O)N[C@@H](Cc1ccc(O)cc1)C(=O)N[C@@H](CCC(N)=O)C(=O)N[C@@H](CCCNC(=N)N)C(=O)NCC(=O)N[C@@H](CO)C(=O)N[C@@H](Cc1ccccc1)C(=O)N1CCC[C@H]1C(=O)N1CCC[C@H]1C(=O)N[C@@H](Cc1c[nH]c2ccccc12)C(=O)N[C@H](C(=O)N[C@@H](CCC(N)=O)C(=O)N[C@@H](CCC(N)=O)C(=O)N[C@H](C(=O)N[C@@H](CCCNC(=N)N)C(=O)N[C@H](C(=O)O)C(C)C)[C@@H](C)O)C(C)C [SYNGAP⍺1],Ki,PSG (PSD-95) [3]; [5],< 75 µM
same,IC50,PSG (PSD-95) [3]; [8],4.24 µM
same,Ki,"PSG (PSD-95) [3]; read-out: Ki (µM), PSG, FP displacement of FITC-15 AA CRIPT probe by acetylated PSD library peptide",0.913 µM
same,IC50,PSG G335A (PSD-95); [8],1.12 µM
same,Ki,PSG G335A (PSD-95); [8],0.24 µM
same,IC50,PSG F325A (PSD-95); [8],8 µM
same,IC50,PSG G322A G335A (PSD-95) [4]; FP displacement of FITC-15 AA CRIPT probe by acetylated PSD library peptide (P-13 to P0 plus extra N-terminal Y),0.922 µM
same,Ki,"PSG G322A G335A (PSD-95) [4]; read-out: Ki (µM), PSG G322A G335A, FP displacement of FITC-15 AA CRIPT probe by acetylated PSD library peptide",0.243 µM
same,IC50,PSG G322A (PSD-95); [8],1.31 µM
same,Ki,PSG G322A (PSD-95); [8],0.4 µM
Ac-YSSPAQSVTPVQTVV [MTMR2],IC50,PSG (PSD-95) [3]; [9],271 µM
same,Ki,"PSG (PSD-95) [3]; read-out: Ki (µM), PSG, FP displacement of FITC-15 AA CRIPT probe by library peptide",115 µM
same,IC50,PSG G335A (PSD-95); [9],277 µM
same,Ki,PSG G335A (PSD-95); [9],99 µM
same,Ki,"PSG G322A G335A (PSD-95) [4]; FP displacement of 5 nM FITC-15 AA CRIPT by non-labeled acetylated peptide, room temperature, Ki from IC50, PSG G322A G335A",95 µM
same,IC50,PDZ3 (PSD-95),333 µM
same,Ki,"PDZ3 (PSD-95); Ki (µM), PDZ3, FP displacement of FITC-15 AA CRIPT probe by library peptide",139 µM
same,IC50,PSG G322A (PSD-95); [9],295 µM
"FL CC ADGRB1: expressed full-length coiled-coil C-terminal part of ADGRB1, residues 1,471–1,584",Higher affinity for PDZ1-2 in comparison with PSG WT,PDZ1-2 (PSD-95),3 fold
